{"source": "ChEMBL document CHEMBL4002603", "about": "“Structure-activity relationship study and discovery of indazole 3-carboxamides as calcium-release activated calcium channel blockers” (Bioorg Med Chem Lett, 2017)", "type_in_all_cases": "cell-based", "key": {"[1]": {"tested_on": "RBL-2H3", "assay": "Cytotoxicity against rat RBL2H3 mast cells at 100 uM by CCK8 cell viability assay", "conditions": "rbl-2h3, 100 µM"}, "[2]": {"assay": "Inhibition of thapsigargin activated calcium-release activated channel in rat RBL2H3 mast cells assessed as decrease in calcium influx by Fluo-4NW calcium assay"}, "[3]": {"species_on_record": "Rattus norvegicus", "assay": "Inhibition of thapsigargin activated calcium-release activated channel in rat RBL2H3 mast cells assessed as decrease in calcium influx at 100 uM by Fluo-4NW calcium assay"}, "[4]": {"assay": "(§1) Inhibition of thapsigargin activated calcium-release activated channel in rat RBL2H3 mast cells assessed as decrease in TNFalpha secretion measured 4 hrs after extracellular calcium exposure by ELISA", "conditions": "RBL-2H3, 4 h"}, "[5]": {"species_on_record": "Rattus norvegicus", "assay": "as §1"}, "[6]": {"species_on_record": "Rattus norvegicus", "assay": "Inhibition of thapsigargin activated calcium-release activated channel in rat RBL2H3 mast cells assessed as decrease in calcium influx at 10 to 100 uM by Fluo-4NW calcium assay"}, "[7]": {"assay": "(§2) Inhibition of thapsigargin activated calcium-release activated channel in rat RBL2H3 mast cells assessed as decrease in nuclear translocation of NFAT-c1 measured 30 mins after extracellular calcium exposure by ELISA", "conditions": "RBL-2H3, 0.5 h"}, "[8]": {"species_on_record": "Rattus norvegicus", "assay": "as §2"}, "[9]": {"assay": "(§3) Inhibition of thapsigargin activated calcium-release activated channel in rat RBL2H3 mast cells assessed as decrease in release of beta-hexosaminidase preincubated for 30 mins followed by extracellular calcium addition by ELISA method", "conditions": "RBL-2H3"}, "[10]": {"species_on_record": "Rattus norvegicus", "assay": "as §3"}, "[11]": {"species_on_record": "Rattus norvegicus", "assay": "Inhibition of thapsigargin activated calcium-release activated channel in rat RBL2H3 mast cells assessed as decrease in calcium influx at 30 uM by Fluo-4NW calcium assay"}, "[12]": {"conditions": "Rattus norvegicus, RBL-2H3, read-out: IC50"}}, "note": "Calls of active or inactive are those of the source. No cut-off for these calls is given here.", "data": [{"smiles": "O=C(Nc1ccnc(F)c1)c1nn(Cc2ccc(Cl)cc2Cl)c2c1CCC2", "values": [{"measurement": "Activity", "setting": "[1]", "result": "Non-Toxic"}, {"measurement": "IC50", "setting": "[2]; [12]", "result": 990, "unit": "nM"}]}, {"smiles": "O=C(Nc1nn(Cc2ccc(Cl)cc2Cl)c2ccccc12)c1cc(F)nc(F)c1", "values": [{"measurement": "inhibition", "setting": "[3]", "result": "< 50", "unit": "%"}, {"measurement": "Activity", "setting": "[1]", "result": "Non-Toxic"}]}, {"smiles": "O=C(Nc1c(F)cccc1Cl)c1nn(Cc2ccc(Cl)cc2Cl)c2ccccc12", "values": [{"measurement": "IC50", "setting": "[4]", "result": 740, "unit": "nM"}, {"measurement": "inhibition", "setting": "[5]", "result": "Dose-dependent effect"}, {"measurement": "Activity", "setting": "[1]", "result": "Non-Toxic"}, {"measurement": "inhibition", "setting": "[6]", "result": "Active"}, {"measurement": "IC50", "setting": "[2]; [12]", "result": 3230, "unit": "nM"}]}, {"smiles": "O=C(Nc1ccnc(F)c1)c1nn(Cc2ccc(Cl)cc2Cl)c2ccccc12", "values": [{"measurement": "inhibition", "setting": "[5]", "result": "Dose-dependent effect"}, {"measurement": "IC50", "setting": "[7]", "result": 1600, "unit": "nM"}, {"measurement": "inhibition", "setting": "[8]", "result": "Dose-dependent effect"}, {"measurement": "Activity", "setting": "[1]", "result": "Non-Toxic"}, {"measurement": "inhibition", "setting": "[6]", "result": "Active"}, {"measurement": "IC50", "setting": "[2]; [12]", "result": 670, "unit": "nM"}, {"measurement": "EC50", "setting": "[9]", "result": 860, "unit": "nM"}, {"measurement": "inhibition", "setting": "[10]", "result": "Dose-dependent effect"}]}, {"smiles": "O=C(Nc1nn(Cc2ccc(Cl)cc2Cl)c2ccccc12)c1ccnc(F)c1", "values": [{"measurement": "inhibition", "setting": "[3]", "result": "< 50", "unit": "%"}, {"measurement": "Activity", "setting": "[1]", "result": "Non-Toxic"}]}, {"smiles": "Cc1cc(NC(=O)c2nn(Cc3ccc(Cl)cc3Cl)c3c2CCC3)ccn1", "values": [{"measurement": "Activity", "setting": "[1]", "result": "Non-Toxic"}, {"measurement": "IC50", "setting": "[2]; [12]", "result": "> 30000", "unit": "nM"}]}, {"smiles": "O=C(Nc1nn(Cc2ccc(Cl)cc2Cl)c2ccccc12)c1ccccc1F", "values": [{"measurement": "Activity", "setting": "[1]", "result": "Non-Toxic"}, {"measurement": "inhibition", "setting": "[6]", "result": "Active"}, {"measurement": "IC50", "setting": "[2]; [12]", "result": 29000, "unit": "nM"}]}, {"smiles": "O=C(Nc1ccc(F)cc1F)c1nn(Cc2ccc(Cl)cc2Cl)c2ccccc12", "values": [{"measurement": "Activity", "setting": "[1]", "result": "Non-Toxic"}, {"measurement": "inhibition", "setting": "[6]", "result": "Active"}, {"measurement": "IC50", "setting": "[2]; [12]", "result": 2330, "unit": "nM"}]}, {"smiles": "O=C(Nc1cc(F)nc(F)c1)c1nn(Cc2ccc(Cl)cc2Cl)c2c1CCCC2", "values": [{"measurement": "Activity", "setting": "[1]", "result": "Non-Toxic"}, {"measurement": "IC50", "setting": "[2]; [12]", "result": 1340, "unit": "nM"}]}, {"smiles": "O=C(Nc1ccnc(F)c1)c1nn(Cc2ccc(Cl)cc2Cl)c2c1CCCCC2", "values": [{"measurement": "Activity", "setting": "[1]", "result": "Non-Toxic"}, {"measurement": "IC50", "setting": "[2]", "result": "Nd(Insoluble)"}]}, {"smiles": "O=C(Nc1ccccc1F)c1nn(Cc2ccc(Cl)cc2Cl)c2ccccc12", "values": [{"measurement": "IC50", "setting": "[4]", "result": 280, "unit": "nM"}, {"measurement": "inhibition", "setting": "[5]", "result": "Dose-dependent effect"}, {"measurement": "inhibition", "setting": "[11]", "result": "44 to 48", "unit": "%"}, {"measurement": "Activity", "setting": "[1]", "result": "Non-Toxic"}, {"measurement": "IC50", "setting": "[2]; [12]", "result": "> 30000", "unit": "nM"}]}, {"smiles": "Cc1nnsc1C(=O)Nc1nn(Cc2ccc(Cl)cc2Cl)c2ccccc12", "values": [{"measurement": "inhibition", "setting": "[11]", "result": "44 to 48", "unit": "%"}, {"measurement": "Activity", "setting": "[1]", "result": "Non-Toxic"}, {"measurement": "IC50", "setting": "[2]; [12]", "result": "> 30000", "unit": "nM"}]}, {"smiles": "Cc1cc(NC(=O)c2nn(Cc3ccc(Cl)cc3Cl)c3c2CCCCC3)ccn1", "values": [{"measurement": "Activity", "setting": "[1]", "result": "Non-Toxic"}, {"measurement": "IC50", "setting": "[2]; [12]", "result": "> 30000", "unit": "nM"}]}, {"smiles": "O=C(Nc1cc(F)nc(F)c1)c1nn(Cc2ccc(Cl)cc2Cl)c2c1CCCCC2", "values": [{"measurement": "Activity", "setting": "[1]", "result": "Non-Toxic"}, {"measurement": "IC50", "setting": "[2]; [12]", "result": 12800, "unit": "nM"}]}, {"smiles": "Cc1cc(C(=O)Nc2nn(Cc3ccc(Cl)cc3Cl)c3ccccc23)ccn1", "values": [{"measurement": "inhibition", "setting": "[11]", "result": "44 to 48", "unit": "%"}, {"measurement": "Activity", "setting": "[1]", "result": "Non-Toxic"}, {"measurement": "IC50", "setting": "[2]; [12]", "result": "> 30000", "unit": "nM"}]}, {"smiles": "Cc1cc(NC(=O)c2nn(Cc3ccc(Cl)cc3Cl)c3ccccc23)ccn1", "values": [{"measurement": "inhibition", "setting": "[3]", "result": "< 50", "unit": "%"}, {"measurement": "Activity", "setting": "[1]", "result": "Non-Toxic"}]}, {"smiles": "O=C(Nc1cc(F)nc(F)c1)c1nn(Cc2ccc(Cl)cc2Cl)c2ccccc12", "values": [{"measurement": "inhibition", "setting": "[11]", "result": 46, "unit": "%"}, {"measurement": "Activity", "setting": "[1]", "result": "Non-Toxic"}, {"measurement": "IC50", "setting": "[2]; [12]", "result": "> 30000", "unit": "nM"}]}, {"smiles": "O=C(Nc1ccnc(F)c1)c1nn(Cc2ccc(Cl)cc2Cl)c2c1CCCC2", "values": [{"measurement": "Activity", "setting": "[1]", "result": "Non-Toxic"}, {"measurement": "IC50", "setting": "[2]; [12]", "result": 1530, "unit": "nM"}]}, {"smiles": "O=C(Nc1nn(Cc2ccc(Cl)cc2Cl)c2ccccc12)c1c(F)cccc1F", "values": [{"measurement": "inhibition", "setting": "[3]", "result": "< 50", "unit": "%"}, {"measurement": "Activity", "setting": "[1]", "result": "Non-Toxic"}]}, {"smiles": "O=C(Nc1nn(Cc2ccc(Cl)cc2Cl)c2ccccc12)c1ccc(F)cc1F", "values": [{"measurement": "inhibition", "setting": "[3]", "result": "< 50", "unit": "%"}, {"measurement": "Activity", "setting": "[1]", "result": "Non-Toxic"}]}, {"smiles": "O=C(Nc1c(F)cccc1F)c1nn(Cc2ccc(Cl)cc2Cl)c2ccccc12", "values": [{"measurement": "IC50", "setting": "[4]", "result": 470, "unit": "nM"}, {"measurement": "inhibition", "setting": "[5]", "result": "Dose-dependent effect"}, {"measurement": "Activity", "setting": "[1]", "result": "Non-Toxic"}, {"measurement": "inhibition", "setting": "[6]", "result": "Active"}, {"measurement": "IC50", "setting": "[2]; [12]", "result": 1510, "unit": "nM"}]}, {"smiles": "O=C(Nc1cc(F)nc(F)c1)c1nn(Cc2ccc(Cl)cc2Cl)c2c1CCC2", "values": [{"measurement": "Activity", "setting": "[1]", "result": "Non-Toxic"}, {"measurement": "IC50", "setting": "[2]; [12]", "result": 650, "unit": "nM"}]}, {"smiles": "Cc1cc(NC(=O)c2nn(Cc3ccc(Cl)cc3Cl)c3c2CCCC3)ccn1", "values": [{"measurement": "Activity", "setting": "[1]", "result": "Non-Toxic"}, {"measurement": "IC50", "setting": "[2]", "result": "Nd(Insoluble)"}]}, {"smiles": "O=C(Nc1cnns1)c1nn(Cc2ccc(Cl)cc2Cl)c2ccccc12", "values": [{"measurement": "inhibition", "setting": "[3]", "result": "< 50", "unit": "%"}, {"measurement": "Activity", "setting": "[1]", "result": "Non-Toxic"}]}]}
